Laboratory results as given in the NIST ThermoML archive (doi:10.1007/s10765-012-1352-4).

Assay: xn = mol fraction of the nth substance listed
Details: Gas, Loschmidt diffusion cell combined with holoholographic interferometry

[Ne] [neon] + [Ar]
binary diffusion coefficient [m2/s]
Details	100 kPa	200 kPa	500 kPa	1000 kPa
293.15 K, x2 = 0.1	3.14e-10	1.57e-10	6.34e-11	3.1e-11
293.15 K, x2 = 0.12	3.14e-10	1.57e-10	6.32e-11	3.1e-11
293.15 K, x2 = 0.14	3.13e-10	1.57e-10	6.31e-11	3.1e-11
293.15 K, x2 = 0.16	3.13e-10	1.57e-10	6.3e-11	3.09e-11
293.15 K, x2 = 0.18	3.12e-10	1.56e-10	6.29e-11	3.09e-11
293.15 K, x2 = 0.2	3.11e-10	1.56e-10	6.28e-11	3.08e-11
293.15 K, x2 = 0.22	3.11e-10	1.56e-10	6.27e-11	3.08e-11
293.15 K, x2 = 0.24	3.1e-10	1.56e-10	6.27e-11	3.07e-11
293.15 K, x2 = 0.26	3.1e-10	1.56e-10	6.26e-11	3.07e-11
293.15 K, x2 = 0.28	3.1e-10	1.56e-10	6.25e-11	3.06e-11
293.15 K, x2 = 0.3	3.09e-10	1.56e-10	6.24e-11	3.06e-11
293.15 K, x2 = 0.32	3.08e-10	1.55e-10	6.23e-11	3.05e-11
293.15 K, x2 = 0.34	3.08e-10	1.55e-10	6.22e-11	3.04e-11
293.15 K, x2 = 0.36	3.07e-10	1.55e-10	6.21e-11	3.03e-11
293.15 K, x2 = 0.38	3.08e-10	1.54e-10	6.2e-11	3.02e-11
293.15 K, x2 = 0.4	3.07e-10	1.54e-10	6.19e-11	3.01e-11
293.15 K, x2 = 0.6	3.1e-10	1.56e-10	6.31e-11	3.13e-11
293.15 K, x2 = 0.62	3.09e-10	1.56e-10	6.29e-11	3.13e-11
293.15 K, x2 = 0.64	3.09e-10	1.56e-10	6.28e-11	3.13e-11
293.15 K, x2 = 0.66	3.09e-10	1.56e-10	6.28e-11	3.12e-11
293.15 K, x2 = 0.68	3.09e-10	1.56e-10	6.28e-11	3.12e-11
293.15 K, x2 = 0.7	3.09e-10	1.56e-10	6.28e-11	3.12e-11
293.15 K, x2 = 0.72	3.1e-10	1.56e-10	6.28e-11	3.12e-11
293.15 K, x2 = 0.74	3.1e-10	1.56e-10	6.28e-11	3.12e-11
293.15 K, x2 = 0.76	3.1e-10	1.56e-10	6.28e-11	3.13e-11
293.15 K, x2 = 0.78	3.1e-10	1.57e-10	6.28e-11	3.13e-11
293.15 K, x2 = 0.8	3.1e-10	1.57e-10	6.28e-11	3.13e-11
293.15 K, x2 = 0.82	3.1e-10	1.57e-10	6.29e-11	3.13e-11
293.15 K, x2 = 0.84	3.11e-10	1.57e-10	6.29e-11	3.13e-11
293.15 K, x2 = 0.86	3.11e-10	1.57e-10	6.29e-11	3.13e-11
293.15 K, x2 = 0.88	3.11e-10	1.57e-10	6.3e-11	3.14e-11
293.15 K, x2 = 0.9	3.11e-10	1.57e-10	6.3e-11	3.14e-11
313.15 K, x2 = 0.1	3.56e-10	1.78e-10	7.02e-11	3.5e-11
313.15 K, x2 = 0.12	3.54e-10	1.77e-10	7e-11	3.49e-11
313.15 K, x2 = 0.14	3.53e-10	1.77e-10	6.99e-11	3.49e-11
313.15 K, x2 = 0.16	3.52e-10	1.77e-10	6.98e-11	3.48e-11
313.15 K, x2 = 0.18	3.52e-10	1.76e-10	6.97e-11	3.47e-11
313.15 K, x2 = 0.2	3.51e-10	1.76e-10	6.96e-11	3.47e-11
313.15 K, x2 = 0.22	3.51e-10	1.76e-10	6.95e-11	3.46e-11
313.15 K, x2 = 0.24	3.49e-10	1.75e-10	6.94e-11	3.45e-11
313.15 K, x2 = 0.26	3.49e-10	1.75e-10	6.92e-11	3.44e-11
313.15 K, x2 = 0.28	3.48e-10	1.75e-10	6.91e-11	3.44e-11
313.15 K, x2 = 0.3	3.47e-10	1.74e-10	6.89e-11	3.42e-11
313.15 K, x2 = 0.32	3.47e-10	1.74e-10	6.88e-11	3.41e-11
313.15 K, x2 = 0.34	3.46e-10	1.74e-10	6.86e-11	3.4e-11
313.15 K, x2 = 0.36	3.46e-10	1.74e-10	6.84e-11	3.39e-11
313.15 K, x2 = 0.38	3.45e-10	1.73e-10	6.82e-11	3.37e-11
313.15 K, x2 = 0.4	3.44e-10	1.73e-10	6.79e-11	3.35e-11
313.15 K, x2 = 0.6	3.52e-10	1.75e-10	7.09e-11	3.52e-11
313.15 K, x2 = 0.62	3.51e-10	1.75e-10	7.08e-11	3.51e-11
313.15 K, x2 = 0.64	3.51e-10	1.75e-10	7.07e-11	3.5e-11
313.15 K, x2 = 0.66	3.5e-10	1.75e-10	7.06e-11	3.5e-11
313.15 K, x2 = 0.68	3.5e-10	1.75e-10	7.06e-11	3.5e-11
313.15 K, x2 = 0.7	3.5e-10	1.75e-10	7.05e-11	3.5e-11
313.15 K, x2 = 0.72	3.5e-10	1.75e-10	7.05e-11	3.5e-11
313.15 K, x2 = 0.74	3.49e-10	1.75e-10	7.05e-11	3.5e-11
313.15 K, x2 = 0.76	3.49e-10	1.75e-10	7.06e-11	3.5e-11
313.15 K, x2 = 0.78	3.49e-10	1.75e-10	7.06e-11	3.5e-11
313.15 K, x2 = 0.8	3.49e-10	1.75e-10	7.06e-11	3.5e-11
313.15 K, x2 = 0.82	3.49e-10	1.75e-10	7.06e-11	3.5e-11
313.15 K, x2 = 0.84	3.49e-10	1.76e-10	7.07e-11	3.5e-11
313.15 K, x2 = 0.86	3.5e-10	1.76e-10	7.07e-11	3.5e-11
313.15 K, x2 = 0.88	3.51e-10	1.76e-10	7.07e-11	3.51e-11
313.15 K, x2 = 0.9	3.51e-10	1.76e-10	7.08e-11	3.51e-11
333.15 K, x2 = 0.1	3.99e-10	1.97e-10	7.82e-11	3.91e-11
333.15 K, x2 = 0.12	3.97e-10	1.97e-10	7.8e-11	3.9e-11
333.15 K, x2 = 0.14	3.95e-10	1.96e-10	7.79e-11	3.89e-11
333.15 K, x2 = 0.16	3.94e-10	1.96e-10	7.77e-11	3.88e-11
333.15 K, x2 = 0.18	3.93e-10	1.95e-10	7.76e-11	3.87e-11
333.15 K, x2 = 0.2	3.91e-10	1.95e-10	7.74e-11	3.86e-11
333.15 K, x2 = 0.22	3.91e-10	1.95e-10	7.72e-11	3.86e-11
333.15 K, x2 = 0.24	3.89e-10	1.94e-10	7.7e-11	3.85e-11
333.15 K, x2 = 0.26	3.89e-10	1.94e-10	7.69e-11	3.84e-11
333.15 K, x2 = 0.28	3.87e-10	1.93e-10	7.67e-11	3.83e-11
333.15 K, x2 = 0.3	3.86e-10	1.93e-10	7.65e-11	3.82e-11
333.15 K, x2 = 0.32	3.86e-10	1.93e-10	7.63e-11	3.81e-11
333.15 K, x2 = 0.34	3.84e-10	1.92e-10	7.6e-11	3.8e-11
333.15 K, x2 = 0.36	3.83e-10	1.91e-10	7.57e-11	3.79e-11
333.15 K, x2 = 0.38	3.83e-10	1.91e-10	7.53e-11	3.77e-11
333.15 K, x2 = 0.4	3.8e-10	1.9e-10	7.48e-11	3.75e-11
333.15 K, x2 = 0.6	3.87e-10	1.94e-10	7.82e-11	3.91e-11
333.15 K, x2 = 0.62	3.85e-10	1.94e-10	7.81e-11	3.91e-11
333.15 K, x2 = 0.64	3.84e-10	1.94e-10	7.8e-11	3.9e-11
333.15 K, x2 = 0.66	3.85e-10	1.94e-10	7.8e-11	3.9e-11
333.15 K, x2 = 0.68	3.85e-10	1.94e-10	7.79e-11	3.9e-11
333.15 K, x2 = 0.7	3.85e-10	1.94e-10	7.79e-11	3.89e-11
333.15 K, x2 = 0.72	3.86e-10	1.93e-10	7.79e-11	3.89e-11
333.15 K, x2 = 0.74	3.85e-10	1.94e-10	7.8e-11	3.89e-11
333.15 K, x2 = 0.76	3.86e-10	1.94e-10	7.8e-11	3.9e-11
333.15 K, x2 = 0.78	3.86e-10	1.94e-10	7.8e-11	3.9e-11
333.15 K, x2 = 0.8	3.86e-10	1.94e-10	7.8e-11	3.9e-11
333.15 K, x2 = 0.82	3.86e-10	1.94e-10	7.81e-11	3.9e-11
333.15 K, x2 = 0.84	3.86e-10	1.94e-10	7.81e-11	3.9e-11
333.15 K, x2 = 0.86	3.86e-10	1.94e-10	7.82e-11	3.9e-11
333.15 K, x2 = 0.88	3.86e-10	1.94e-10	7.82e-11	3.91e-11
333.15 K, x2 = 0.9	3.86e-10	1.94e-10	7.82e-11	3.91e-11
